test system: CSCs (3D tumor sphere formation); assay: not given; conditions: mitochondrial inhibitors; background statement; cited from earlier work

Compound	3D tumor sphere formation
Cc1n[nH]c(C)c1Cc1sc2c(c1C(=O)N1C[C@H](O)CO1)c(=O)n(C)c(=O)n2CC(C)C [AR-C155858]	successfully blocked
O=C(/C=C/c1ccc(O)c(O)c1)OCCc1ccccc1 [CAPE]	successfully blocked
CCCCC[C@H](CC(=O)NO)C(=O)N[C@H](C(=O)N1CCC[C@H]1CO)C(C)C [actinonin]	successfully blocked
CC[C@H]1OC(=O)[C@H](C)[C@@H](O[C@H]2C[C@@](C)(OC)[C@@H](O)[C@H](C)O2)[C@H](C)[C@@H](O[C@@H]2O[C@H](C)C[C@H](N(C)C)[C@H]2O)[C@](C)(O)C[C@@H](C)CN(C)[C@H](C)[C@@H](O)[C@]1(C)O [azithromycin]	successfully blocked
COc1nc2ccc(Br)cc2cc1[C@@H](c1ccccc1)[C@@](O)(CCN(C)C)c1cccc2ccccc12 [bedaquiline]	successfully blocked
COc1ccc2cc3[n+](cc2c1OC)CCc1cc2c(cc1-3)OCO2 [berberine]	successfully blocked
COc1ccc([C@@H]2CC(=O)c3c(O)cc(O[C@@H]4O[C@H](COC(=O)CC(C)(O)CC(=O)O)[C@@H](O)[C@H](O)[C@H]4O[C@@H]4O[C@@H](C)[C@H](O)[C@@H](O)[C@H]4O)cc3O2)cc1O (stereo partly drawn) [brutieridin]	successfully blocked
C[C@@H]1O[C@@H](O[C@@H]2[C@@H](Oc3cc(O)c4c(c3)O[C@H](c3ccc(O)cc3)CC4=O)O[C@@H](COC(=O)C[C@@](C)(O)CC(=O)O)[C@H](O)[C@H]2O)[C@@H](O)[C@H](O)[C@H]1O [melitidin]	successfully blocked
CC[C@H]1/C=C/C=C/C[C@@H](C)[C@H](O)[C@@](C)(O)C(=O)[C@@H](C)[C@H](O)[C@@H](C)C(=O)[C@@H](C)[C@H](O)[C@@H](C)/C=C/C(=O)O[C@@H]2[C@H](C)[C@H](CC1)O[C@]1(CC[C@H](C)[C@H](C[C@@H](C)O)O1)[C@H]2C [oligomycin]	successfully blocked
CN(C)c1cc(NC(=O)CNC(C)(C)C)c(O)c2c1C[C@H]1C[C@H]3[C@H](N(C)C)C(O)=C(C(N)=O)C(=O)[C@@]3(O)C(O)=C1C2=O [tigecycline]	successfully blocked

test system: MCF7 cells; assay: mammosphere assay; type: cell-based; conditions: compared to Trilaciclib
Description: Moreover, CSCs are strikingly resilient and highly resistant to cellular stress, which allows them to undergo anchorage-independent growth, especially under conditions of low-attachment. As a consequence, they form 3D spheroids, which retain the properties of CSCs and stem cell progenitors. In contrast, when subjected to growth in suspension, most “bulk” cancer cells die, via anoikis—a specialized type of apoptosis. […] Therefore, 3D spheroid formation is a functional read-out for stemness in epithelial cancer cells and allows one to enrich for a population of epithelioid cells with a stem-like phenotype. These 3D spheroids are also known as mammospheres when they are prepared using breast cancer cells, such as MCF7, among others.

Compound	inhibition of MCF7 cells in the mammosphere assay
CCCCCCCCCCCCCC(=O)N1CCN(c2ccc(Nc3ncc4cc5n(c4n3)C3(CCCCC3)CNC5=O)nc2)CC1 [formula [2]]	remarkably improved inhibition
CCCCCCCCCCCCCCCC(=O)CCN1CCN(c2ccc(Nc3ncc4cc5n(c4n3)C3(CCCCC3)CNC5=O)nc2)CC1 [formula [3]]	remarkably improved inhibition

Source: patent US20240116942A1, “SELECTIVE CDK 4/6 INHIBITOR CANCER THERAPEUTICS” (LUNELLA BIOTECH, INC., priority 2020, published 2024)
